Test results published in patent US9096558B2, “N-sulfonylbenzamide compounds” (Pfizer Limited, priority 2010, dated 2015).
Where a name gives a salt, the structure may show the parent alone.

molecular target: T1, Nav1.7 (or SCN9A) channel (Homo sapiens, UniProt Q15858); assay: Nav1.7 (hSCN9A) PatchXpress electrophysiology assay; format: cell-based; settings: estimated IC50 calculated from single point electrophysiology data; PatchXpress platform; HEK cells stably expressing hSCN9A; held at V1/2 of inactivation; read-out: Nav1.7 EIC50
T1 construct: expressed in transfected cells
Method: The ability of the compounds of formula (I) to block the Nav1.7 (or SCN9A) channel were measured using the assay described below.
Human Embryonic Kidney (HEK) cells were transfected with an hSCN9A construct using lipofectamine reagent (Invitrogen), using standard techniques. Cells stably expressing the hSCN9A constructs were identified by their resistance to G-418 (400 μg/ml). Clones were screened for expression using the whole-cell voltage-clamp technique.
HEK cells stably transfected with hSCN9A were maintained in DMEM medium supplemented with 10% heat-inactivated fetal bovine serum and 400 μg/ml G-418 in an incubator at 37° C. with a humidified atmosphere of 10% CO2. For HTS, cells were harvested from flasks by trypsinization and replated in an appropriate multi-well plate (typically 96 or 384 wells/plate) such that confluence would be achieved within 24 hours of plating. For electrophysiological studies, cells were removed from the culture flask by brief trypsinization and re-plated at low density onto glass cover slips. Cells were typically used for electrophysiological experiments within 24 to 72 hours after plating.
Cover slips containing HEK cells expressing hSCN9A were placed in a bath on the stage of an inverted microscope and perfused (approximately 1 ml/minutes) with extracellular solution of the following composition: 138 mM NaCl, 2 mM CaCl2, 5.4 mM KCl, 1 mM MgCl2, 10 mM glucose, and 10 mM HEPES, pH 7.4, with NaOH. […] The osmolarity of the extracellular and intracellular solutions was 300 mOsm/kg and 295 mOsm/kg, respectively. All recordings were made at room temperature (22-24° C.) using AXOPATCH 200B amplifiers and PCLAMP software (Axon Instruments, Burlingame, Calif.).
hSCN9A currents in HEK cells were measured using the whole-cell configuration of the patch-clamp technique (Hamill et al., 1981). Uncompensated series resistance was typically 2 to 5 mega ohms and >85% series resistance compensation was routinely achieved. As a result, voltage errors were negligible and no correction was applied. Current records were acquired at 20 to 50 KHz and filtered at 5 to 10 KHz.
HEK cells stably transfected with hSCN9A were viewed under Hoffman contrast optics and placed in front of an array of flow pipes emitting either control or compound-containing extracellular solutions. All compounds were dissolved in dimethyl sulfoxide to make 10 mM stock solutions, which were then diluted into extracellular solution to attain the final concentrations desired. […] The voltage-dependence of inactivation was determined by applying a series of depolarizing prepulses (8 sec long in 10 mV increments) from a negative holding potential. The voltage was then immediately stepped to 0 mV to assess the magnitude of the sodium current. Currents elicited at 0 mV were plotted as a function of prepulse potential to allow estimation of the voltage at which 50% of the channels were inactivated (midpoint of inactivation or V½). Compounds were tested for their ability to inhibit hSCN9A sodium channels by activating the channel with a 20 msec voltage step to 0 mV following an 8 second conditioning prepulse to the empirically determined V½. Compound effect (% inhibition) was determined by difference in current amplitude before and after application of test compounds. For ease of comparison, “estimated IC-50” (EIC50) values were calculated from single point electrophysiology data by the following equation, (tested concentration, uM)×(100-% inhibition/% inhibition). Inhibition values <20% and >80% were excluded from the calculation.
Electrophysiological assays were conducted with PatchXpress 7000 hardware and associated software (Molecular Devices Corp). All assay buffers and solutions were identical to those used in conventional whole-cell voltage clamp experiments described above. hSCN9A cells were grown as above to 50%-80% confluency and harvested by trypsinization. […]

T1 sequence (Q15858 whole entry): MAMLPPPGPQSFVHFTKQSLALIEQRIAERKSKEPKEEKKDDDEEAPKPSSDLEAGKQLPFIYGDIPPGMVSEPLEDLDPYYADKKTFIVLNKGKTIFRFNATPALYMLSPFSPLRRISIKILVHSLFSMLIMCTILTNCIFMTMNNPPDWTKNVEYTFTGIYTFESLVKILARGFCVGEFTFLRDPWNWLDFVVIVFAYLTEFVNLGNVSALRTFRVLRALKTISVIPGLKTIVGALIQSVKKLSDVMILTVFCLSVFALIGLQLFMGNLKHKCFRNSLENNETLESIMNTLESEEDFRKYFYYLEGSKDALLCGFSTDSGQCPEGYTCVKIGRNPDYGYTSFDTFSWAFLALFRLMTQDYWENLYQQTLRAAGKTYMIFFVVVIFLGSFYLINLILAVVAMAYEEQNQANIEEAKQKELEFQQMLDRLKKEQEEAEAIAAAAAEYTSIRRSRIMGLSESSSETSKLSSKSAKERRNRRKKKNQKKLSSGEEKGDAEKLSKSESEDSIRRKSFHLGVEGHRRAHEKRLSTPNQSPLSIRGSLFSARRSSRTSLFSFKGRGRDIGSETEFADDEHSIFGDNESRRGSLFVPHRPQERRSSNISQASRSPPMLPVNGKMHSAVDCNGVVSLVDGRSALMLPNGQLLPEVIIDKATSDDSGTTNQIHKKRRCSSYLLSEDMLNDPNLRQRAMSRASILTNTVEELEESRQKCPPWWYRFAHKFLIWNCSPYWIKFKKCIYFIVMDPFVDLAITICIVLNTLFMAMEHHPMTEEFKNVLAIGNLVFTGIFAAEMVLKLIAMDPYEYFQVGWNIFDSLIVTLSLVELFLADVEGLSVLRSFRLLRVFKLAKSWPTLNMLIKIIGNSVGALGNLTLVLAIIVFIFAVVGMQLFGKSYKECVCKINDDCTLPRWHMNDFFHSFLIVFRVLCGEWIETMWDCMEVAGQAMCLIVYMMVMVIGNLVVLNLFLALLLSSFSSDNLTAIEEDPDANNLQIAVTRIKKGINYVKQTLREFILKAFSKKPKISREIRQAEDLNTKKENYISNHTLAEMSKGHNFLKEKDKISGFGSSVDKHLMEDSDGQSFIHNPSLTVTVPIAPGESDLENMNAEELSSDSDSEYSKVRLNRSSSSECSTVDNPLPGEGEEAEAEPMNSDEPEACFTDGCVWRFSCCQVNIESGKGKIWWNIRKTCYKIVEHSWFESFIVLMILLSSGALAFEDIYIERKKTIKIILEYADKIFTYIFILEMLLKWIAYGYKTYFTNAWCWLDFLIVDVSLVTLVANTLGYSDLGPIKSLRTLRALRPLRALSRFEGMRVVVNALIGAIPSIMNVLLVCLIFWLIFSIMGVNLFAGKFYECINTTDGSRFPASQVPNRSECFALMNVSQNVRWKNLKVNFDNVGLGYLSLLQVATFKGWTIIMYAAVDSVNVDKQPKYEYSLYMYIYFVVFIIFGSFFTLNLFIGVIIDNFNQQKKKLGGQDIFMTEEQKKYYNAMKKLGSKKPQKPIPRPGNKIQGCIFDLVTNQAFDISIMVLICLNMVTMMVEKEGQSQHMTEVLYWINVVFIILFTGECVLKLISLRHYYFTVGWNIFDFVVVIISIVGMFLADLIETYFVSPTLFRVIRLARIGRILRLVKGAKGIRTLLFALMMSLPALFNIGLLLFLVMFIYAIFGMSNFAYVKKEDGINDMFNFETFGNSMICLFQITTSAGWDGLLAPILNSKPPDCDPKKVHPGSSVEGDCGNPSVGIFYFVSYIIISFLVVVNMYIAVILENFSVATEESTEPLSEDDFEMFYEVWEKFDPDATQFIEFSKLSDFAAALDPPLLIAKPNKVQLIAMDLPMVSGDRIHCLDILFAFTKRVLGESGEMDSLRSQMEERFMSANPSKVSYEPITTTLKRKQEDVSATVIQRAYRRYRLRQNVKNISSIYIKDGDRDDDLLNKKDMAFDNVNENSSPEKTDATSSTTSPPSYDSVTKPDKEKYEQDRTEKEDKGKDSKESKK

IC50 [nM] | Structure (SMILES)
1000 | COc1cccc(Sc2ccc(S(=O)(=O)Nc3ncns3)cc2C#N)c1 [Example 3, 3-Cyano-4-[(3-methoxyphenyl)thio]-N-1,2,4-thiadiazol-5-ylbenzenesulfonamide]
> 3000 | COc1ccc(Sc2ccc(S(=O)(=O)Nc3ncns3)cc2C#N)cc1 [Example 11, 3-cyano-4-[(4-methoxyphenyl)thio]-N-1,2,4-thiadiazol-5-ylbenzenesulfonamide]
320 | COc1ccccc1Sc1ccc(S(=O)(=O)Nc2ncns2)cc1C#N [Example 12, 3-cyano-4-[(2-methoxyphenyl)thio]-N-1,2,4-thiadiazol-5-ylbenzenesulfonamide]
840 | N#Cc1cc(S(=O)(=O)Nc2ncns2)ccc1Sc1cccc(C(F)(F)F)c1 [Example 13, 3-cyano-N-1,2,4-thiadiazol-5-yl-4-{[3-(trifluoromethyl)phenyl]thio}benzenesulfonamide]
190 | N#Cc1cc(S(=O)(=O)Nc2ncns2)ccc1Sc1ccc(C(F)(F)F)cc1 [Example 14, 3-cyano-N-1,2,4-thiadiazol-5-yl-4-{[4-(trifluoromethyl)phenyl]thio}benzenesulfonamide]
920 | N#Cc1cc(S(=O)(=O)Nc2ncns2)ccc1Sc1ccccc1F [Example 15, 3-Cyano-4-[(2-fluorophenyl)thio]-N-1,2,4-thiadiazol-5-ylbenzenesulfonamide]
930 | N#Cc1cc(S(=O)(=O)Nc2ncns2)ccc1Sc1ccccc1C(F)(F)F [Example 16, 3-Cyano-N-1,2,4-thiadiazol-5-yl-4-{[2-(trifluoromethyl)phenyl]thio}benzenesulfonamide]
2200 | N#Cc1cc(S(=O)(=O)Nc2ncns2)ccc1Sc1ccc(F)c(F)c1 [Example 17, 3-Cyano-4-[(3,4-difluorophenyl)thio]-N-1,2,4-thiadiazol-5-ylbenzenesulfonamide]
70 | N#Cc1cc(S(=O)(=O)Nc2ncns2)ccc1Sc1ccc(C(F)(F)F)cc1-c1ccnnc1 [Example 18, 3-Cyano-4-{[2-pyridazin-4-yl-4-(trifluoromethyl)phenyl]thio}-N-1,2,4-thiadiazol-5-ylbenzenesulfonamide]
5.8 | COc1cc(C(F)(F)F)ccc1Cc1ccc(S(=O)(=O)Nc2ncns2)cc1C#N [Example 21, 3-Cyano-4-[2-methoxy-4-(trifluoromethyl)benzyl]-N-1,2,4-thiadiazol-5-ylbenzenesulfonamide]

More lines, now with the values behind:

Structure (SMILES) | IC50 [nM]
O=S(=O)(Nc1nncs1)c1cc(Cl)c(Sc2cccc(C(F)(F)F)c2)cc1F [Example 1, 5-Chloro-2-fluoro-N-1,3,4-thiadiazol-2-yl-4-{[3-(trifluoromethyl)phenyl]thio}benzenesulfonamide] | 930
COc1ccc(Sc2cc(F)c(S(=O)(=O)Nc3nncs3)cc2Cl)cc1 [Example 2, 5-Chloro-2-fluoro-4-[(4-methoxyphenyl)thio]-N-1,3,4-thiadiazol-2-ylbenzenesulfonamide] | 2100
COc1cccc(Sc2cc(F)c(S(=O)(=O)Nc3nncs3)cc2Cl)c1 [Example 4, 5-chloro-2-fluoro-4-[(3-methoxyphenyl)thio]-N-1,3,4-thiadiazol-2-ylbenzenesulfonamide] | 1900
O=S(=O)(Nc1nncs1)c1cc(Cl)c(Sc2ccccc2C(F)(F)F)cc1F [Example 5, 5-chloro-2-fluoro-N-1,3,4-thiadiazol-2-yl-4-{[2-(trifluoromethyl)phenyl]thio}benzenesulfonamide] | 5080
O=S(=O)(Nc1nncs1)c1cc(Cl)c(Sc2cccc(F)c2)cc1F [Example 6, 5-chloro-2-fluoro-4-[(3-fluorophenyl)thio]-N-1,3,4-thiadiazol-2-ylbenzenesulfonamide] | 3300
O=S(=O)(Nc1nncs1)c1cc(Cl)c(Sc2ccccc2F)cc1F [Example 7, 5-chloro-2-fluoro-4-[(2-fluorophenyl)thio]-N-1,3,4-thiadiazol-2-ylbenzenesulfonamide] | 3700
COc1ccccc1Sc1cc(F)c(S(=O)(=O)Nc2nncs2)cc1Cl [Example 8, 5-chloro-2-fluoro-4-[(2-methoxyphenyl)thio]-N-1,3,4-thiadiazol-2-ylbenzenesulfonamide] | 250
O=S(=O)(Nc1nncs1)c1cc(Cl)c(Sc2ccc(F)c(F)c2)cc1F [Example 9, 5-chloro-4-[(3,4-difluorophenyl)thio]-2-fluoro-N-1,3,4-thiadiazol-2-ylbenzenesulfonamide] | 2300
O=S(=O)(Nc1nncs1)c1cc(Cl)c(Sc2ccc(C(F)(F)F)cc2)cc1F [Example 10, 5-chloro-2-fluoro-N-1,3,4-thiadiazol-2-yl-4-{[4-(trifluoromethyl)phenyl]thio}benzenesulfonamide] | 5200
O=S(=O)(Nc1nncs1)c1cc(Cl)c(Sc2ccc(C(F)(F)F)cc2-c2ccnnc2)cc1F [Example 19, 5-Chloro-2-fluoro-4-{[2-pyridazin-4-yl-4-(trifluoromethyl)phenyl]thio}-N-1,3,4-thiadiazol-2-ylbenzenesulfonamide] | 45
Nc1cc(-c2cc(C(F)(F)F)ccc2Sc2cc(F)c(S(=O)(=O)Nc3nncs3)cc2Cl)ccn1 [Example 20, 4-{[2-(2-Aminopyridin-4-yl)-4-(trifluoromethyl)phenyl]thio}-5-chloro-2-fluoro-N-1,3,4-thiadiazol-2-ylbenzenesulfonamide hydrochloride] | 33
N#Cc1cc(S(=O)(=O)Nc2ncns2)ccc1Cc1ccc(C(F)(F)F)cc1-c1ccnnc1 [Example 22, 3-Cyano-4-[2-pyridazin-4-yl-4-(trifluoromethyl)benzyl]-N-1,2,4-thiadiazol-5-ylbenzenesulfonamide] | 140
Nc1cc(-c2cc(C(F)(F)F)ccc2Sc2cc(F)c(S(=O)(=O)Nc3ncccn3)cc2Cl)ccn1 [Example 24, 4-{[2-(2-Aminopyridin-4-yl)-4-(trifluoromethyl)phenyl]thio}-5-chloro-2-fluoro-N-pyrimidin-2-ylbenzenesulfonamide] | 72
